Laboratory results published in PubChem BioAssay (NCI).
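Growth conditions: 96-well plates. Treatment: test compound, 48 hours, 5 concentrations. Analysis: linear interpolation between bracketing concentrations; unreached endpoints set to highest concentration. The concentration for full growth arrest is given as TGI.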

Legend:
Assay in all cases: growth of human tumour cells (NCI), 48 h
786-0 renal = system: 786-0 renal
A498 renal = system: A498 renal
A549 NSCLC = system: A549 NSCLC
ACHN renal = system: ACHN renal
CAKI-1 renal = system: CAKI-1 renal
CCRF-CEM leukemia = system: CCRF-CEM leukemia
COLO 205 colon = system: COLO 205 colon
DLD-1 colon = system: DLD-1 colon
DMS 114 small cell lung = system: DMS 114 small cell lung
DMS 273 small cell lung = system: DMS 273 small cell lung
EKVX NSCLC = system: EKVX NSCLC
HCC-2998 colon = system: HCC-2998 colon
HCT-116 colon = system: HCT-116 colon
HCT-15 colon = system: HCT-15 colon
HL-60(TB) leukemia = system: HL-60(TB) leukemia
HOP-18 NSCLC = system: HOP-18 NSCLC
HOP-62 NSCLC = system: HOP-62 NSCLC
HOP-92 NSCLC = system: HOP-92 NSCLC
HT29 colon = system: HT29 colon
IGROV1 ovarian = system: IGROV1 ovarian
K-562 leukemia = system: K-562 leukemia
KM12 colon = system: KM12 colon
KM20L2 colon = system: KM20L2 colon
LOX IMVI melanoma = system: LOX IMVI melanoma
LXFL 529 NSCLC = system: LXFL 529 NSCLC
M14 melanoma = system: M14 melanoma
M19-MEL melanoma = system: M19-MEL melanoma
MALME-3M melanoma = system: MALME-3M melanoma
MOLT-4 leukemia = system: MOLT-4 leukemia
NCI-H226 lung = system: NCI-H226 lung
NCI-H23 lung = system: NCI-H23 lung
NCI-H460 lung = system: NCI-H460 lung
NCI-H522 lung = system: NCI-H522 lung
OVCAR-3 ovarian = system: OVCAR-3 ovarian
OVCAR-4 ovarian = system: OVCAR-4 ovarian
OVCAR-5 ovarian = system: OVCAR-5 ovarian
OVCAR-8 ovarian = system: OVCAR-8 ovarian
RXF 393 renal = system: RXF 393 renal
SF-268 CNS = system: SF-268 CNS
SF-295 CNS = system: SF-295 CNS
SF-539 CNS = system: SF-539 CNS
SK-MEL-2 melanoma = system: SK-MEL-2 melanoma
SK-MEL-28 melanoma = system: SK-MEL-28 melanoma
SK-MEL-5 melanoma = system: SK-MEL-5 melanoma
SK-OV-3 ovarian = system: SK-OV-3 ovarian
SN12C renal = system: SN12C renal
SNB-19 CNS = system: SNB-19 CNS
SNB-75 CNS = system: SNB-75 CNS
SNB-78 CNS = system: SNB-78 CNS
SW-620 colon = system: SW-620 colon
TK-10 renal = system: TK-10 renal
U251 CNS = system: U251 CNS
UACC-257 melanoma = system: UACC-257 melanoma
UACC-62 melanoma = system: UACC-62 melanoma
UO-31 renal = system: UO-31 renal
XF 498 CNS = system: XF 498 CNS
RPMI-8226 leukemia = system: RPMI-8226 leukemia
SR leukemia = system: SR leukemia

## Cc1cccc(C)c1NC(=O)C(=O)C(C#N)c1ccccc1 (stereo unspecified)
786-0 renal
  TGI: > 100 µM
A498 renal
  TGI: > 100 µM
A549 NSCLC
  TGI: > 100 µM
ACHN renal
  TGI: > 100 µM
CAKI-1 renal
  TGI: > 100 µM
CCRF-CEM leukemia
  TGI: > 100 µM
COLO 205 colon
  TGI: > 100 µM
DLD-1 colon
  TGI: > 100 µM
DMS 114 small cell lung
  TGI: > 100 µM
DMS 273 small cell lung
  TGI: > 100 µM
EKVX NSCLC
  TGI: > 100 µM
HCC-2998 colon
  TGI: > 100 µM
HCT-116 colon
  TGI: > 100 µM
HCT-15 colon
  TGI: > 100 µM
HL-60(TB) leukemia
  TGI: > 100 µM
HOP-18 NSCLC
  TGI: > 100 µM
HOP-62 NSCLC
  TGI: > 100 µM
HOP-92 NSCLC
  TGI: > 100 µM
HT29 colon
  TGI: > 100 µM
IGROV1 ovarian
  TGI: > 100 µM
K-562 leukemia
  TGI: > 100 µM
KM12 colon
  TGI: > 100 µM
KM20L2 colon
  TGI: > 100 µM
LOX IMVI melanoma
  TGI: > 100 µM
LXFL 529 NSCLC
  TGI: > 100 µM
M14 melanoma
  TGI: > 100 µM
M19-MEL melanoma
  TGI: > 100 µM
MALME-3M melanoma
  TGI: > 100 µM
MOLT-4 leukemia
  TGI: > 100 µM
NCI-H226 lung
  TGI: > 100 µM
NCI-H23 lung
  TGI: > 100 µM
NCI-H460 lung
  TGI: > 100 µM
NCI-H522 lung
  TGI: > 100 µM
OVCAR-3 ovarian
  TGI: > 100 µM
OVCAR-4 ovarian
  TGI: > 100 µM
OVCAR-5 ovarian
  TGI: > 100 µM
OVCAR-8 ovarian
  TGI: > 100 µM
RXF 393 renal
  TGI: > 100 µM
SF-268 CNS
  TGI: > 100 µM
SF-295 CNS
  TGI: > 100 µM
SF-539 CNS
  TGI: > 100 µM
SK-MEL-2 melanoma
  TGI: > 100 µM
SK-MEL-28 melanoma
  TGI: > 100 µM
SK-MEL-5 melanoma
  TGI: > 100 µM
SK-OV-3 ovarian
  TGI: > 100 µM
SN12C renal
  TGI: > 100 µM
SNB-19 CNS
  TGI: > 100 µM
SNB-75 CNS
  TGI: > 100 µM
SNB-78 CNS
  TGI: > 100 µM
SW-620 colon
  TGI: > 100 µM
TK-10 renal
  TGI: > 100 µM
U251 CNS
  TGI: > 100 µM
UACC-257 melanoma
  TGI: > 100 µM
UACC-62 melanoma
  TGI: > 100 µM
UO-31 renal
  TGI: > 100 µM
XF 498 CNS
  TGI: > 100 µM

## CCOC(=O)[C@H]1Nc2ccc(Cl)cc2[C@H]2CCC[C@@H]12
786-0 renal
  TGI: > 100 µM
A549 NSCLC
  TGI: > 100 µM
ACHN renal
  TGI: > 100 µM
CAKI-1 renal
  TGI: > 100 µM
COLO 205 colon
  TGI: > 100 µM
DLD-1 colon
  TGI: > 100 µM
DMS 114 small cell lung
  TGI: > 100 µM
DMS 273 small cell lung
  TGI: > 100 µM
EKVX NSCLC
  TGI: > 100 µM
HCC-2998 colon
  TGI: > 100 µM
HCT-116 colon
  TGI: > 100 µM
HCT-15 colon
  TGI: > 100 µM
HOP-18 NSCLC
  TGI: > 100 µM
HOP-62 NSCLC
  TGI: > 100 µM
HT29 colon
  TGI: > 100 µM
IGROV1 ovarian
  TGI: > 100 µM
K-562 leukemia
  TGI: > 100 µM
KM12 colon
  TGI: > 100 µM
KM20L2 colon
  TGI: > 100 µM
LOX IMVI melanoma
  TGI: > 100 µM
LXFL 529 NSCLC
  TGI: > 100 µM
M14 melanoma
  TGI: > 100 µM
M19-MEL melanoma
  TGI: > 100 µM
MALME-3M melanoma
  TGI: > 100 µM
MOLT-4 leukemia
  TGI: > 100 µM
NCI-H226 lung
  TGI: > 100 µM
NCI-H23 lung
  TGI: > 100 µM
NCI-H460 lung
  TGI: > 100 µM
NCI-H522 lung
  TGI: > 100 µM
OVCAR-3 ovarian
  TGI: > 100 µM
OVCAR-4 ovarian
  TGI: > 100 µM
OVCAR-5 ovarian
  TGI: > 100 µM
OVCAR-8 ovarian
  TGI: > 100 µM
RPMI-8226 leukemia
  TGI: > 100 µM
RXF 393 renal
  TGI: 64.4 µM
SF-268 CNS
  TGI: > 100 µM
SF-295 CNS
  TGI: > 100 µM
SF-539 CNS
  TGI: > 100 µM
SK-MEL-2 melanoma
  TGI: > 100 µM
SK-MEL-28 melanoma
  TGI: > 100 µM
SK-MEL-5 melanoma
  TGI: > 100 µM
SN12C renal
  TGI: > 100 µM
SNB-19 CNS
  TGI: > 100 µM
SNB-75 CNS
  TGI: > 100 µM
SNB-78 CNS
  TGI: > 100 µM
SR leukemia
  TGI: > 100 µM
SW-620 colon
  TGI: > 100 µM
TK-10 renal
  TGI: > 100 µM
U251 CNS
  TGI: > 100 µM
UACC-257 melanoma
  TGI: 62.2 µM
UACC-62 melanoma
  TGI: > 100 µM
UO-31 renal
  TGI: > 100 µM
XF 498 CNS
  TGI: > 100 µM

## CC(=O)Nc1ccc(C2C(C(=O)Nc3ccccc3)=C(C)NC(C)=C2C(=O)Nc2ccccc2)cc1
786-0 renal
  TGI: > 100 µM
A498 renal
  TGI: > 100 µM
A549 NSCLC
  TGI: > 100 µM
ACHN renal
  TGI: > 100 µM
CAKI-1 renal
  TGI: > 100 µM
CCRF-CEM leukemia
  TGI: > 100 µM
COLO 205 colon
  TGI: > 100 µM
DLD-1 colon
  TGI: > 100 µM
DMS 114 small cell lung
  TGI: > 82.5 µM
DMS 273 small cell lung
  TGI: > 100 µM
EKVX NSCLC
  TGI: > 100 µM
HCC-2998 colon
  TGI: > 100 µM
HCT-116 colon
  TGI: > 100 µM
HCT-15 colon
  TGI: > 100 µM
HL-60(TB) leukemia
  TGI: > 100 µM
HOP-18 NSCLC
  TGI: > 100 µM
HOP-62 NSCLC
  TGI: > 100 µM
HOP-92 NSCLC
  TGI: > 100 µM
HT29 colon
  TGI: > 100 µM
IGROV1 ovarian
  TGI: > 100 µM
K-562 leukemia
  TGI: > 100 µM
KM12 colon
  TGI: > 100 µM
KM20L2 colon
  TGI: > 100 µM
LOX IMVI melanoma
  TGI: > 100 µM
LXFL 529 NSCLC
  TGI: > 100 µM
M14 melanoma
  TGI: > 100 µM
M19-MEL melanoma
  TGI: > 100 µM
MALME-3M melanoma
  TGI: > 100 µM
MOLT-4 leukemia
  TGI: > 100 µM
NCI-H226 lung
  TGI: > 100 µM
NCI-H23 lung
  TGI: > 100 µM
NCI-H460 lung
  TGI: > 100 µM
NCI-H522 lung
  TGI: > 100 µM
OVCAR-3 ovarian
  TGI: > 100 µM
OVCAR-4 ovarian
  TGI: > 100 µM
OVCAR-5 ovarian
  TGI: > 100 µM
OVCAR-8 ovarian
  TGI: > 100 µM
RPMI-8226 leukemia
  TGI: > 100 µM
RXF 393 renal
  TGI: > 100 µM
SF-268 CNS
  TGI: > 100 µM
SF-295 CNS
  TGI: > 100 µM
SF-539 CNS
  TGI: > 100 µM
SK-MEL-2 melanoma
  TGI: > 100 µM
SK-MEL-28 melanoma
  TGI: > 100 µM
SK-MEL-5 melanoma
  TGI: > 100 µM
SK-OV-3 ovarian
  TGI: > 100 µM
SN12C renal
  TGI: > 100 µM
SNB-19 CNS
  TGI: > 100 µM
SNB-75 CNS
  TGI: > 100 µM
SNB-78 CNS
  TGI: > 100 µM
SW-620 colon
  TGI: > 100 µM
TK-10 renal
  TGI: > 100 µM
U251 CNS
  TGI: > 100 µM
UACC-257 melanoma
  TGI: > 100 µM
UACC-62 melanoma
  TGI: > 100 µM
UO-31 renal
  TGI: > 100 µM
XF 498 CNS
  TGI: > 100 µM
